Measurements reported in US20230151326A1, “Simplified Compositions and Methods for Generating Neural Stem Cells from Human Pluripotent Stem Cells” (Wisconsin Alumni Research Foundation, priority 2012, published 2023).

Test system: H9 hESCs
Test: Flow cytometry of neural markers in H9 hESCs differentiated in neural differentiation media
Format: cell-based, human
Details: day 9, E6 medium containing 1 μM RA
Method: hPSCs were washed once with phosphate-buffered saline (PBS; Invitrogen), incubated with Accutase® (Invitrogen) for 3 min, and collected by centrifugation. hPSCs were then plated onto Matrigel® or VTN-NC at a density of 2×10^5 cells/cm^2 in E8 medium containing 10 μM ROCK inhibitor and cultured overnight. The following morning, cells were changed to E6 medium, E6 containing 10 μM SB431542 (Cellagentech), or E6 containing 10 μM SB431542 and 200 ng/mL recombinant human noggin (R&D Systems) to initiate differentiation. E6 medium is the same formulation as E8 medium but without FGF2 and TGFβ1. Medium was changed every day until cells were utilized for analysis. […]
Cells were harvested from 6- or 12-well plates by washing once with PBS and incubating with Accutase® for 3-5 min. […] After washing twice with PBS containing 0.75% BSA, cells were analyzed on a FACSCanto™ (BD Biosciences) and resultant data were analyzed using Cyflogic software. Positive events were determined by gating the top 1% of the IgG control histograms, and all flow data presented are from biological replicates.
H9 hESCs were seeded at 2×10^5 cells/cm^2 on Matrigel® in E8 medium plus ROCK inhibitor as described above. […] Also, the morphological characteristics of the cells at day 6 were assessed by bright field microscopy. […]

In the case of `CC1=C(/C=C/C(C)=C/C=C/C(C)=C/C(=O)O)C(C)(C)CCC1` [retinoic acid], the “SOX1 expression by flow cytometry” value is reported as “up to 62±16%”.
